# Molecular target: His-tagged N-terminal ATP binding domain (amino acid residues 9-236) of HSP90α (Homo sapiens, UniProt P07900)
# Assay: HSP90 inhibitor binding potency: TRF competition binding assay
# Settings: Table I; read-out: Hsp90 IC50 Range
# Description: HSP90 Inhibitor Binding Potency: TRF Binding Assay
# In this example, the binding potency of HSP90 inhibitors as measured by a TRF binding assay is described.
# TRF competition binding assays were performed to determine the binding potency (IC50 values) of HSP90 inhibitors. Purified His-tagged N-terminal ATP binding domain (amino acid residues 9-236) of HSP90α (HSP90α GeneID: 3320; mRNA Sequence NM_005348) was incubated for two hours at room temperature in binding buffer (50 mM HEPES, 6 mM MgCl2, 20 mM KCl and 0.1% BSA) with biotinylated radicicol and progressively higher concentrations of the competing compounds. A fraction of the mixture was transferred to capture plates (coated with streptavidin) and incubated for one hour at room temperature. After washing with DELFIA wash buffer, europium-labeled anti-his antibody was added and incubated for two hours at room temperature, followed by washing with DELFIA buffer. DELFIA enhancement solution was then added. After gentle shaking for 10 minutes, the plates were read in VICTOR for europium counts.
row,IC50 [nM],Compound
1,< 1000,"Cc1nc(N)nc2c1C(=O)CC(c1ccc(F)cc1-c1cncnc1)C2 (stereo not shown) [Compound 60, 2-amino-7-(4-fluoro-2-pyrimidin-5-yl-phenyl)-4-methyl-7,8-dihydro-6H-quinazolin-5-one]"
2,1000 to 10000,"CC(=O)Nc1cccc(-c2ccccc2C2CC(=O)c3c(C)nc(N)nc3C2)c1 (stereo not shown) [Compound 102, N-[2′-(2-amino-4-methyl-5-oxo-5,6,7,8-tetrahydroquinazolin-7-yl)-1,1′-biphenyl-3-yl]acetamide]"
3,< 1000,"Cc1nc(N)nc2c1C(=O)CC(c1ccccc1C1=CCCCC1)C2 (stereo not shown) [Compound 44, 2-amino-7-(2-cyclohex-1-en-1-ylphenyl)-4-methyl-7,8-dihydroquinazolin-5(6H)-one]"
4,1000 to 10000,"Cc1nc(N)nc2c1C(=O)CC(c1ccccc1Oc1ccnc(Cl)c1)C2 (stereo not shown) [Compound 147, 2-amino-7-{2-[(2-chloropyridin-4-yl)oxy]phenyl}-4-methyl-7,8-dihydroquinazolin-5(6H)-one]"
5,< 1000,"Cc1nc(N)nc2c1C(=O)CC(c1ccccc1-c1cc(F)cnc1Cl)C2 (stereo not shown) [Compound 101, 2-amino-7-[2-(2-chloro-5-fluoropyridin-3-yl)phenyl]-4-methyl-7,8-dihydroquinazolin-5(6H)-one]"
6,< 1000,"Cc1nc(N)nc2c1C(=O)CC(c1ccccc1-c1ccccc1CO)C2 (stereo not shown) [Compound 67, 2-amino-7-[2′-(hydroxymethyl)-1,1′-biphenyl-2-yl]-4-methyl-7,8-dihydroquinazolin-5(6H)-one]"
7,< 1000,"Cc1nc(N)nc2c1C(=O)CC(c1ccccc1-c1cccnc1)C2 (stereo not shown) [Compound 26, 2-amino-4-methyl-7-(2-pyridin-3-ylphenyl)-7,8-dihydroquinazolin-5(6H)-one]"
8,< 1000,"CCOc1cccc(-c2cccnc2F)c1C1CC(=O)c2c(C)nc(N)nc2C1 (stereo not shown) [Compound 151, 2-amino-7-[2-ethoxy-6-(2-fluoro-pyridin-3-yl)-phenyl]-4-methyl-7,8-dihydro-6H-quinazolin-5-one]"
9,< 1000,"Cc1nc(N)nc2c1C(=O)CC(c1ccccc1-c1cccc3cc[nH]c13)C2 (stereo not shown) [Compound 129, 2-amino-7-[2-(1H-indol-7-yl)phenyl]-4-methyl-7,8-dihydroquinazolin-5(6H)-one]"
10,< 1000,"Cc1nc(N)nc2c1C(=O)CC(c1ccc(F)cc1-c1cccc(F)n1)C2 (stereo not shown) [Compound 89, 2-amino-7-[4-fluoro-2-(6-fluoro-pyridin-2-yl)-phenyl]-4-methyl-7,8-dihydro-6H-quinazolin-5-one]"
11,< 1000,"Cc1ccc(-c2ccccc2C2CC(=O)c3c(C)nc(N)nc3C2)nc1 (stereo not shown) [Compound 117, 2-amino-4-methyl-7-[2-(5-methylpyridin-2-yl)phenyl]-7,8-dihydroquinazolin-5(6H)-one]"
12,> 10000,"Cc1nc(N)nc2c1C(=O)CC(c1ccccc1S(=O)(=O)c1ccccc1)C2 (stereo not shown) [Compound 23, 2-amino-7-(2-benzenesulfonyl-phenyl)-4-methyl-7,8-dihydro-6H-quinazolin-5-one]"
13,< 1000,"CCOc1ccccc1C1CC(=O)c2c(C)nc(N)nc2C1 (stereo not shown) [Compound 148, 2-amino-7-(2-ethoxy-phenyl)-4-methyl-7,8-dihydro-6H-quinazolin-5-one]"
14,< 1000,"Cc1nc(N)nc2c1C(=O)CC(c1ccccc1-c1cccnc1F)C2 (stereo not shown) [Compound 55, 2-amino-7-[2-(2-fluoropyridin-3-yl)phenyl]-4-methyl-7,8-dihydroquinazolin-5(6H)-one]"
15,1000 to 10000,"Cc1nc(N)nc2c1C(=O)CC(c1ccccc1-c1cccnn1)C2 (stereo not shown) [Compound 115, 2-amino-4-methyl-7-(2-pyridazin-3-ylphenyl)-7,8-dihydroquinazolin-5(6H)-one]"
16,< 1000,"Cc1cccc(Oc2ccccc2C2CC(=O)c3c(C)nc(N)nc3C2)c1 (stereo not shown) [Compound 135, 2-amino-4-methyl-7-[2-(3-methylphenoxy)phenyl]-7,8-dihydroquinazolin-5(6H)-one]"
17,1000 to 10000,"CC(=O)Nc1ccccc1-c1ccccc1C1CC(=O)c2c(C)nc(N)nc2C1 (stereo not shown) [Compound 103, N-[2′-(2-amino-4-methyl-5-oxo-5,6,7,8-tetrahydroquinazolin-7-yl)-1,1′-biphenyl-2-yl]acetamide]"

# Same assay, conditions: Table II; read-out: Hsp90 IC50 Range
row,IC50 [nM],Compound
1,< 1000,"COc1nc(-n2ccnc2[C@@H]2CC(=O)c3c(C)nc(N)nc3C2)ncc1C [Compound 208, (S)-2-amino-7-[1-(4-methoxy-5-methyl-pyrimidin-2-yl)-1H-imidazol-2-yl]-4-methyl-7,8-dihydro-6H-quinazolin-5-one]"
2,< 1000,"Nc1ncc2c(n1)CC(c1ccccc1-c1cccc(F)n1)CC2=O (stereo not shown) [Compound 245, 2-amino-7-[2-(6-fluoro-pyridin-2-yl)-phenyl]-7,8-dihydro-6H-quinazolin-5-one]"
3,< 1000,"COc1nc(-c2cc(F)ccc2[C@@H]2CC(=O)c3c(C)nc(N)nc3C2)ncc1Cl [Compound 300, (S)-2-amino-7-[2-(5-chloro-4-methoxy-pyrimidin-2-yl)-4-fluoro-phenyl]-4-methyl-7,8-dihydro-6H-quinazolin-5-one]"
4,< 1000,"Cc1nc(N)nc2c1C(=O)C[C@@H](c1ccc(F)cc1-c1cccc(F)n1)C2 [Compound 214, (S)-2-amino-7-[4-fluoro-2-(6-fluoro-pyridin-2-yl)-phenyl]-4-methyl-7,8-dihydro-6H-quinazolin-5-one]"
5,< 1000,"COc1nc(-c2cc(F)ccc2C2CC(=O)c3c(C)nc(N)nc3C2)cnc1Cl (stereo not shown) [Compound 334, 2-amino-7-[2-(5-chloro-6-methoxy-pyrazin-2-yl)-4-fluoro-phenyl]-4-methyl-7,8-dihydro-6H-quinazolin-5-one]"
6,< 1000,"COc1cnc(-c2cc(F)ccc2[C@@H]2CC(=O)c3c(C)nc(N)nc3C2)nc1OC [Compound 288, (S)-2-amino-7-[2-(4,5-dimethoxy-pyrimidin-2-yl)-4-fluoro-phenyl]-4-methyl-7,8-dihydro-6H-quinazolin-5-one]"
7,< 1000,"CCOc1cncc(-c2cc(F)ccc2[C@@H]2CC(=O)c3c(C)nc(N)nc3C2)n1 [Compound 336, (S)-2-amino-7-[2-(6-ethoxy-pyrazin-2-yl)-4-fluoro-phenyl]-4-methyl-7,8-dihydro-6H-quinazolin-5-one]"
8,1000 to 10000,"COc1cccc(-n2ccnc2[C@H]2CC(=O)c3c(C)nc(N)nc3C2)n1 [Compound 203, (R)-2-amino-7-[1-(6-methoxy-pyridin-2-yl)-1H-imidazol-2-yl]-4-methyl-7,8-dihydro-6H-quinazolin-5-one]"
9,< 1000,"COc1ccc(-c2cccnc2OC)c(C2CC(=O)c3c(C)nc(N)nc3C2)c1 (stereo not shown) [Compound 253, 2-amino-7-[5-methoxy-2-(2-methoxy-pyridin-3-yl)-phenyl]-4-methyl-7,8-dihydro-6H-quinazolin-5-one]"
10,< 1000,"CCc1nc(N)nc2c1C(=O)CC(c1ccc(F)cc1-c1cnc(OC)c(OC)n1)C2 (stereo not shown) [Compound 324, 2-amino-7-[2-(5,6-dimethoxy-pyrazin-2-yl)-4-fluoro-phenyl]-4-ethyl-7,8-dihydro-6H-quinazolin-5-one]"
11,> 10000,"Cc1nc(N)nc2c1C(=O)CC(c1nccn1Cc1ccccn1)C2 (stereo not shown) [Compound 209, 2-amino-4-methyl-7-(1-pyridin-2-ylmethyl-1H-imidazol-2-yl)-7,8-dihydro-6H-quinazolin-5-one]"
12,> 10000,"COc1cccc(-c2cc(F)c(C3CC(=O)c4c(C)nc(N)nc4C3)c(F)c2)n1 (stereo not shown) [Compound 256, 2-amino-7-[2,6-difluoro-4-(6-methoxy-pyridin-2-yl)-phenyl]-4-methyl-7,8-dihydro-6H-quinazolin-5-one]"
13,> 10000,"Cc1nc(N)nc2c1C(=O)C[C@@H](c1ccc(F)cc1-c1cnc3ncn(C)c3n1)C2 [Compound 331, (S)-2-amino-7-[4-fluoro-2-(3-methyl-3H-imidazo[4,5-b]pyrazin-5-yl)-phenyl]-4-methyl-7,8-dihydro-6H-quinazolin-5-one]"
14,< 1000,"Cc1nc(N)nc2c1C(=O)CC(c1ccccc1SC(C)(C)C)C2 (stereo not shown) [Compound 180, 2-amino-7-(2-tert-butylsulfanyl-phenyl)-4-methyl-7,8-dihydro-6H-quinazolin-5-one]"
15,< 1000,"CCc1nc(N)nc2c1C(=O)CC(c1ccc(F)cc1-c1cnc(N)c(OC)n1)C2 (stereo not shown) [Compound 335, 2-amino-7-[2-(5-amino-6-methoxy-pyrazin-2-yl)-4-fluoro-phenyl]-4-ethyl-7,8-dihydro-6H-quinazolin-5-one]"
16,< 1000,"Cc1nc(N)nc2c1C(=O)CC(c1ccc(F)cc1OC1CCCC1)C2 (stereo not shown) [Compound 181, 2-amino-7-(2-cyclopentyloxy-4-fluoro-phenyl)-4-methyl-7,8-dihydro-6H-quinazolin-5-one]"
17,< 1000,"Cc1nc(N)nc2c1C(=O)CC(c1cnccc1-c1cccc(Br)c1)C2 (stereo not shown) [Compound 187, 2-amino-7-[4-(3-bromo-phenyl)-pyridin-3-yl]-4-methyl-7,8-dihydro-6H-quinazolin-5-one]"
18,< 1000,"CCC(CC)Oc1cc(F)ccc1C1CC(=O)c2c(C)nc(N)nc2C1 (stereo not shown) [Compound 267, 2-amino-7-[2-(1-ethyl-propoxy)-4-fluoro-phenyl]-4-methyl-7,8-dihydro-6H-quinazolin-5-one]"
19,< 1000,"COc1ccccc1-n1ccnc1C1CC(=O)c2c(C)nc(N)nc2C1 (stereo not shown) [Compound 194, 2-amino-7-[1-(2-methoxy-phenyl)-1H-imidazol-2-yl]-4-methyl-7,8-dihydro-6H-quinazolin-5-one]"
20,1000 to 10000,"Cc1nc(N)nc2c1C(=O)CC(c1c(F)cccc1Br)C2 (stereo not shown) [Compound 236, 2-amino-7-(2-bromo-6-fluoro-phenyl)-4-methyl-7,8-dihydro-6H-quinazolin-5-one]"

# From patent US20070027150A1 (priority 2005, published 2007)
